Experimental data: PubChem BioAssay AID599 (The Scripps Research Institute Molecular Screening Center, 2007)
Active and inactive are the calls of the source. The rule behind the calls is not given here.

molecular target: Nuclear receptor ROR-alpha (Homo sapiens) (UniProt P35398); assay: RORA reporter inhibition, dose response, counter-screen for SF-1 inhibitor project, cell-based (AID 599)
Sequence (P35398 whole entry, looked up): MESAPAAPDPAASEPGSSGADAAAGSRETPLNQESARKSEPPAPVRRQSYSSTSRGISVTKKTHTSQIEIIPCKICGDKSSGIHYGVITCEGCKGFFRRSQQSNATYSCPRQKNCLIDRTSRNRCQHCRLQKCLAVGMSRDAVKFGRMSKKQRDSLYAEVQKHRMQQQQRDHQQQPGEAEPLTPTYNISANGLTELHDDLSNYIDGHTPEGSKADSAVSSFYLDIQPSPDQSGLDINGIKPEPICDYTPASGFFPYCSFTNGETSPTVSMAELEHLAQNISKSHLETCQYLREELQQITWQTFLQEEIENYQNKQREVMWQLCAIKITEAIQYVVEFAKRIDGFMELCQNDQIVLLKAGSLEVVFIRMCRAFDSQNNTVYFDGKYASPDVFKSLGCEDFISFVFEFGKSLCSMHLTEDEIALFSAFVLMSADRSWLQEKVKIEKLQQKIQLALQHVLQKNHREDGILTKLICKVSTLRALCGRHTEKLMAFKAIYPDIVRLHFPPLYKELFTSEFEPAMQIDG

SMILES	IC50
O=C(/C=C\Nc1ccccn1)c1ccc(Cl)cc1	7.08 µM
CCN(CC)c1ccc2c(c1)OC(N)=C(C#N)C2c1cccnc1 (centres undefined)	inactive
CSC1=C(C#N)C(c2ccc(Cl)cc2)C2=C(CC(C)(C)CC2=O)N1 (centres undefined)	inactive
CN(C)c1ccc2c(c1)OC(N)=C(C#N)C2c1cccc(F)c1 (centres undefined)	inactive
CC(=O)CC1OC(=O)C(Br)=C1NCc1ccccc1 (centres undefined)	9.45 µM
CN(C)c1ccc(N/C=C/C(=O)c2ccccc2)cc1	inactive
COc1cc(/C=N/O)ccc1OCc1ccc(C(=O)O)cc1	0.967 µM
Cc1ccc(C(=O)/C=C/Nc2ccccn2)cc1	inactive
COC(=O)C1=C(CN2CCCc3ccccc32)NC(=O)NC1c1ccc(F)cc1 (centres undefined)	3.59 µM
COc1cc(C2C(C#N)=C(C)NC3=C2C(=O)c2ccccc23)cc(OC)c1OC (centres undefined)	4.75 µM
COc1cc(C2C(C#N)=C(N)Oc3cc(N)ccc32)cc(OC)c1OC (centres undefined)	inactive
O=C(/C=C\Nc1ccc2c(c1)OCO2)c1ccccn1	> 11 µM (inactive)
COc1cc(C2C(C#N)=C(N)Oc3cc(N(C)C)ccc32)cc2c1OCO2 (centres undefined)	> 3.67 µM (inactive)
N#CC1=C(N)C(C#N)(C#N)[C@H](c2ccncc2)[C@H]2CN(C(=O)OCc3ccccc3)CC=C12	inactive
O=C(/C=C\Nc1cccc(F)c1)c1ccc2c(c1)OCO2	5.54 µM
CCOc1ccccc1-n1c(SCC(=O)Nc2ccc(CC)cc2)nc2n[nH]c(C)c2c1=N	6.54 µM
CCOC(=O)C1=C(Cn2cnc3ccccc32)NC(=O)NC1c1cc(C)ccc1C (centres undefined)	> 11 µM (inactive)
O=S(=O)(c1ccc2c(c1)C(=NO)c1cc(S(=O)(=O)N3CCCCC3)ccc1-2)N1CCCCC1	1.93 µM
COC(=O)c1ccc(N2C(=O)CC(N3CCC(n4c(=O)[nH]c5ccccc54)CC3)C2=O)cc1 (centres undefined)	> 99 µM (inactive)
